Data taken from US5589568A (priority 1994, dated 1996).
Like-named read-outs stand apart in the source and are kept apart here. Where a SMILES comes first, the peptide text is derived from it. Where no end group is shown, it is not given here. The star is where a group is joined. Dodecyl = CCCCCCCCCCCC*

Tests used:
Go = biological target: T1, Go (Bos taurus, UniProt P08239); assay: steady state GTPase activity of Go in phospholipid vesicles; assay type: biochemical, bovine
T1 construct: proteins were extracted from bovine cerebral cortical membranes; from tissue; host or cells: bovine brain (cerebral cortical membranes)

Gs = Gs (Homo sapiens, UniProt P63092); assay: steady state GTPase activity of Gs; assay type: biochemical; settings: read-out: Gs af. (apparent affinity, estimated by EC50 of GTPase activity)
Method: Methods for the assay of steady state GTP hydrolysis and GTPγS binding have been described previously by Higashijima, 1987, and Ferguson, 1986, and incorporated herein by reference. Unless noted otherwise, assays of steady state GTP hydrolysis and of the binding and dissociation of guanine nucleotides were carried out in the buffer described previously, but without detergent and with 1.1 mM MgSO4 and the nucleotide specified in the text. When necessary, the concentration of free Mg^2+ was adjusted using EDTA buffers as described previously by Higashijima, 1987, and incorporated herein by reference.
The data set forth in the following tables represent data generated by the inventors employing the steady state GTP hydrolysis, expressed as molar turnover numbers, are described herein under the "Assay" section of the Experimental Procedures in Example 1. The data has been classified according to the criteria outlined below and the effects of each peptide and modified variant on Go, Gi, and Gs have been tabulated. Table III below sets forth data generated for various mastoparan analogues designed by the inventors, in comparison with the various naturally-occurring mastoparans (e.g., MP, MP-A and MP-T). Table IV sets forth similar data generated for various receptor-based peptides designed by the inventors based on a consideration of various G-protein linked receptors.
Apparent affinity (af.) and apparent efficacy (ef.) were estimated by EC50 and maximum turnover number of GTPase activity.

[1] = Table VI, receptor-based peptides

Gs, sequence (P63092 whole entry): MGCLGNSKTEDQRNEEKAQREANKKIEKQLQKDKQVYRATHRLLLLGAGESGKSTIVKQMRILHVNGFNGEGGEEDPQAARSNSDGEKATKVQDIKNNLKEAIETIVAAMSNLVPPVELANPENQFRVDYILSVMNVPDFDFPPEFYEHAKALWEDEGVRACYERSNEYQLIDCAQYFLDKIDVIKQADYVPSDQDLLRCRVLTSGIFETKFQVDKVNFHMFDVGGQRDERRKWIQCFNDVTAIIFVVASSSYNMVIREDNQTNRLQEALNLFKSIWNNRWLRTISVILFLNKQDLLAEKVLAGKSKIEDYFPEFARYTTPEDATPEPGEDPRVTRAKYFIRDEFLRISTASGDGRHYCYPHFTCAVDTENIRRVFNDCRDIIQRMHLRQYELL
T1 sequence (P08239 2-354 limits assumed): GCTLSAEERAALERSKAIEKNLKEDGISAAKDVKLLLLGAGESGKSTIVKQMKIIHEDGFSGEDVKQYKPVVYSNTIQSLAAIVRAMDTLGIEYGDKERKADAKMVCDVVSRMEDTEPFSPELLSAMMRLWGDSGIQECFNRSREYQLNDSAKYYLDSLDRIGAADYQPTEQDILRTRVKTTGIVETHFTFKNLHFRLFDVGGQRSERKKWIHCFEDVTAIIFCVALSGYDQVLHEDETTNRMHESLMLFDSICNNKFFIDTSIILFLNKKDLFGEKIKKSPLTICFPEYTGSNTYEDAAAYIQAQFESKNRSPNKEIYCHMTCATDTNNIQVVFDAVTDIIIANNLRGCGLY
T1 sequence (P62871 2-340 partner limits assumed): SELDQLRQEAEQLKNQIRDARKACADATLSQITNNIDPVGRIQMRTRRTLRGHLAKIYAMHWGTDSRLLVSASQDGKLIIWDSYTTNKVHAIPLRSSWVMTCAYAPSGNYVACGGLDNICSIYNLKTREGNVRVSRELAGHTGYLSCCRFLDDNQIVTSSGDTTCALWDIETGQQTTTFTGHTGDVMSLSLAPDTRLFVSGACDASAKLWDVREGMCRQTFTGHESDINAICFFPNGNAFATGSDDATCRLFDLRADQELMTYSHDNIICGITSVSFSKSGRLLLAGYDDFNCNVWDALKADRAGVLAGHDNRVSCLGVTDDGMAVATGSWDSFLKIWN
T1 sequence (P63212 2-68 partner limits assumed): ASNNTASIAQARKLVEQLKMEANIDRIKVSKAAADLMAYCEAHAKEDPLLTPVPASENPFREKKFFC

| Compound | EC50 (Go) [µM] | EC50 (Gs; [1]) [µM] | EC50 (Gs; Table IV) [µM] |
| --- | --- | --- | --- |
| CCCCCCCCCCCCSC[C@H](NC(=O)[C@@H](NC(=O)[C@@H](NC(=O)CNC(=O)[C@H](CC(C)C)NC(=O)[C@@H](NC(=O)[C@H](CCCCN)NC(=O)[C@H](CC(C)C)NC(=O)[C@H](C)NC(=O)[C@H](CCCCN)NC(=O)[C@H](Cc1c[nH]cn1)NC(=O)[C@H](CCC(=O)O)NC(=O)[C@@H](N)CCCNC(=N)N)[C@@H](C)O)[C@@H](C)CC)[C@@H](C)CC)C(N)=O [C12-ER40] (H-REHKALKTLGIIC(Dodecyl)-NH2) | 3 to 10 | 3 to 10 | – |
| CC[C@H](C)[C@H](N)C(=O)N[C@@H](CC(N)=O)C(=O)N[C@@H](Cc1ccc(O)cc1)C(=O)N[C@@H](CCCCN)C(=O)N[C@@H](C)C(=O)N[C@@H](CC(C)C)C(=O)N[C@@H](C)C(=O)N[C@@H](C)C(=O)N[C@@H](CC(C)C)C(=O)N[C@@H](C)C(=O)N[C@@H](CCCCN)C(=O)N[C@@H](CCCCN)C(=O)N[C@H](C(=O)N[C@@H](CC(C)C)C(N)=O)[C@@H](C)CC [ER13] | 3 to 10 | – | 3 to 10 |
| CC[C@H](C)[C@H](N)C(=O)N[C@@H](CC(N)=O)C(=O)N[C@@H](CC(C)C)C(=O)N[C@@H](CCCCN)C(=O)N[C@@H](C)C(=O)N[C@@H](CC(C)C)C(=O)N[C@@H](C)C(=O)N[C@@H](C)C(=O)N[C@@H](CC(C)C)C(=O)N[C@@H](C)C(=O)N[C@@H](CCCCN)C(=O)N[C@@H](CCCCN)C(=O)N[C@@H](CC(C)C)C(=O)N[C@@H](CC(C)C)C(N)=O [MAS03] | 3 to 10 | – | 10 to 30 |
| CC[C@H](C)[C@H](N)C(=O)N[C@@H](CC(N)=O)C(=O)N[C@@H](CC(C)C)C(=O)N[C@@H](CCCCN)C(=O)N[C@@H](C)C(=O)N[C@@H](CC(C)C)C(=O)N[C@@H](C)C(=O)N[C@@H](C)C(=O)N[C@@H](CC(C)C)C(=O)N[C@@H](C)C(=O)N[C@@H](CCCCN)C(=O)N[C@@H](CCCCN)C(=O)N[C@@H](C)C(=O)N[C@@H](CC(C)C)C(N)=O [MAS05, INLKALAALAKKAL] | 10 to 30 | – | 10 to 30 |
| CC[C@H](C)[C@H](N)C(=O)N[C@@H](CC(N)=O)C(=O)N[C@@H](CC(C)C)C(=O)N[C@@H](CCCCN)C(=O)N[C@@H](C)C(=O)N[C@@H](CC(C)C)C(=O)N[C@@H](C)C(=O)N[C@@H](C)C(=O)N[C@@H](CC(C)C)C(=O)N[C@@H](C)C(=O)N[C@@H](CCCCN)C(=O)N[C@@H](CCCCN)C(=O)N[C@@H](CCCCN)C(=O)N[C@@H](CC(C)C)C(N)=O [MAS06] | 30 to 100 | – | 30 to 100 |
| CISRASKSRIKKDKKEPVAIL-NH2 [ER44] | < 3 | 30 to 100 | – |
| CISRASKSRIKKDKKIL-NH2 [ER45] | < 3 | 3 to 10 | – |
| CIYRETENRARELAALQGSET-NH2 [ER32] | > 100 | > 100 | – |
| CIYRETENRARELAALQGSETIL-NH2 [ER33] | > 100 | > 100 | – |
| CLLKALAALAKALL-NH2 [ER30] | 3 to 10 | – | 3 to 10 |
| CNYKALAALAKALL-NH2 [ER16] | 3 to 10 | – | 10 to 30 |
| CPLSYRAKRTPRRAALM-NH2 [ER38] | 3 to 10 | 30 to 100 | – |
| CVFQVAKRQLQKIDKVL-NH2 [ER36] | 10 to 30 | 30 to 100 | – |
| CVYIVAKRTTKNLEAGVMKEIL-NH2 [ER34] | 30 to 100 | 30 to 100 | – |
| CVYIVAKRTTKNLEIL-NH2 [ER35] | 10 to 30 | > 100 | – |
| CVYREAKEQIRKIDR-NH2 [ER43] | > 100 | > 100 | – |
| CVYREAKEQIRKIDRVL-NH2 [ER18] | 30 to 100 | > 100 | – |
| CVYREAKEQIRKIL-NH2 [ER19] | > 100 | > 100 | – |
| CVYVVAKRESRGLKIL-NH2 [ER47] | 30 to 100 | > 100 | – |
| CVYVVAKRESRGLKSGLKTDIL-NH2 [ER46] | 30 to 100 | > 100 | – |
| IKWKAILDAVKKVL-NH2 [MP-A, reference compound] | 3 to 10 | – | 3 to 10 |
| ILLKALAALAKALL-NH2 [ER21] | 3 to 10 | – | 3 to 10 |
| INAKALAALAKKLL-NH2 [MAS21] | 10 to 30 | – | 10 to 30 |
